Where “and” joins values, the source holds several entries; their conditions need not be identical. Equal values may be shown once.
Test system: locally advanced or metastatic non-small cell lung cancer (NSCLC)
Experiment: POPLAR phase II clinical trial (NCT01903993): atezolizumab vs docetaxel, outcomes by bTMB score
Format: in vivo, human
Settings: for OS HR (95% CI) / PFS HR (95% CI) / OS HR / PFS HR: atezolizumab vs docetaxel
Procedure: A blood-based assay was used to evaluate the association between clinical response to treatment with atezolizumab (MPDL3280A) and blood tumor mutational burden (bTMB) score in patients with non-small cell lung cancer (NSCLC) enrolled in two clinical trials, a phase II clinical trial, POPLAR (Clinical Trial ID No.: NCT01903993), and a phase III clinical trial, OAK (Clinical Trial ID No.: NCT02008227), in which atezolizumab was administered as a monotherapy.
Pre-treatment blood samples from patients with NSCLC who were enrolled in the POPLAR and/or the OAK studies, in which atezolizumab was administered as a monotherapy, were evaluated for bTMB score and/or maximum somatic allele frequency (MSAF).
The POPLAR (Clinical Trial ID No.: NCT01903993) patient population evaluated for bTMB score consisted of 273 patients. Patients were eligible for enrollment in the POPLAR study if they had locally advanced or metastatic (e.g., stage IIIB, stage IV, or recurrent) non-small cell lung cancer (NSCLC); disease progression during or following treatment with a prior platinum-containing regimen for locally advanced, unresectable/inoperable, or metastatic NSCLC, or disease recurrence within 6 months of treatment with a platinum-based adjuvant/neoadjuvant regimen; measurable disease, as defined by RECIST v1.1; and an Eastern Cooperative Oncology Group (ECOG) performance status of 0 or 1. Participants were randomized to receive either atezolizumab at a dose of 1200 mg intravenously every three weeks or docetaxel 75 mg per meter square (mg/m^2) intravenously every three weeks. Treatment with atezolizumab could be continued as long as participants were experiencing clinical benefit, i.e., in the absence of unacceptable toxicity or symptomatic deterioration attributed to disease progression.
Analysis of bTMB was performed retrospectively. Progression-free survival (PFS) was defined as the time between date of randomization and date of first documented disease progression as assessed by the investigator using RECIST v.1.1 or death from any cause, whichever occurred first. Overall survival (OS) was defined as the time between the date of randomization until death due to any cause. Treatment arms were compared for OS and PFS individually using a univariate Cox regression model without stratification in the biomarker evaluable-population (BEP) and their subgroups or using a stratified (by randomization stratification factors) Cox model in the ITT population. No multiplicity correction was applied to p-values or confidence intervals (CI). Kaplan-Meier methodology was used to estimate median OS and PFS and construct survival curves.
In the POPLAR ITT population (N=287), 273 samples were available for analysis. Of these, 6 were removed for sample contamination >1%; 9 were removed for median exon coverage <800×; and 47 were removed for low MSAF<1%.
The POPLAR BEP (N=211) includes 15 patients with EGFR mutation or ALK rearrangement, and 196 without known alterations.
To identify somatic mutations and calculate a bTMB score, whole blood samples obtained from each patient (collected in EDTA or Streck tubes) were processed through a series of spins to isolate plasma, from which cell free DNA (cfDNA) was extracted for sequencing analysis. Specifically, at least 20 ng purified cfDNA was used for library construction. Next-generation sequencing libraries using fragment barcodes and hybrid capture were constructed to analyze and sequence a pre-determined set of 394 genes that covered approximately 1.125 Mb of the exome. Specifically, purified libraries were hybrid captured using a 394-gene bait set and then further purified, pooled and loaded on an ILLUMINA® HISEQ® 4000 sequencing system. Sequenced libraries were aligned and sorted. […]

[1] = bTMB score subgroup ≥10 (96 patients)
[2] = bTMB score subgroup ≥16 (63 patients)
[3] = bTMB score subgroup ≥20 (42 patients)

atezolizumab
OS HR (95% CI) (BEP (n = 211)): 0.68
PFS HR (95% CI) (BEP (n = 211)): 0.9
OS HR (95% CI) (ITT (n = 287)): 0.69 and 0.73
PFS HR (95% CI) (ITT (n = 287)): 0.92 and 0.94
OS HR [1]: 0.59
PFS HR [1]: 0.68
OS HR [2]: 0.56
PFS HR [2]: 0.57
OS HR [3]: 0.51
PFS HR [3]: 0.58
median OS (bTMB≥16, per treatment arm): 13.0 months
median PFS (bTMB≥16, per treatment arm): 4.2 months
PFS HR (reference bTMB score of 18 (Dx+, n=52)): 0.57
